Reference: patent publication US20210369623A1, “COMPOSITION THAT FORMS LIQUID CRYSTALLINE PARTICLES” (Zeenar Enterprises Pty Ltd, priority 2018, published 2021)

Assays:
[1] = cited from earlier work
[2] = In vitro release/permeation through porcine buccal mucosa in modified Ussing chamber (rosuvastatin, oxycodone, atorvastatin); details: not yet tested
[3] = SAXS of mixtures of GMO and excipient/active ingredient immersed in PBS (liquid crystal phase and lattice size); format: physicochemical; design: lamella phase lattice size: unit not given here; details: for Threshold (minimum amount of ingredient required to increase the water channel size): % w/w of ingredient in GMO; for Phase structure: PBS buffer pH 6.8, ~22° C.; for Concentration at which V2(Pn3m) lattice size increased / Concentration of transformation/transition in liquid crystalline structure: concentration in GMO; for Concentration of transformation/transition in liquid crystalline structure: change to structure with larger water channels (e.g. Im3m)
Protocol: The samples were then mixed via a roller mixer at ˜10 RPM at 40° C. for at least 3 days.
One week prior to SAXS experiment, 100 mg samples were loaded into a transparent polystyrene 96 well plate (Nunc™) and immersed in 200 μL of PBS buffer (pH 6.8). The samples were stored away from light at ambient temperature, to allow the samples to reach equilibrium.
The SAXS/WAXS beamline at Australian Synchrotron, Melbourne, Australia was used to determine the liquid crystalline nanostructure in the samples.
A custom-designed plate holder was used to mount the samples plate directly onto the SAXS/WAXS beamline. Scans were automated using a pre-loaded set of position variables based on the well positions within the plate, the exposure time was 5 sec.
Data were obtained at ambient temperature (˜22° C.). […] The 2-D diffraction images were recorded on a Pilatus 1M detector and radially integrated using the in-house software “ScatterBrain”.

[4] = Concentration in GMO 1%, first value of the cell (first phase listed)
[5] = Concentration in GMO 5%, first value of the cell (first phase listed)
[6] = Concentration in GMO 10%, first value of the cell (first phase listed)
[7] = Concentration in GMO 15%, first value of the cell (first phase listed)
[8] = Concentration in GMO 20%, first value of the cell (first phase listed)
[9] = Concentration in GMO 10%, second value of the cell (second phase)
[10] = Concentration in GMO 15%, second value of the cell (second phase)

| Phase structure ([3]; Concentration in GMO 1%) | Lattice size [3, 4] | Phase structure ([3]; Concentration in GMO 5%) | Lattice size [3, 5] | Phase structure ([3]; Concentration in GMO 10%) | Lattice size [3, 6] | Phase structure ([3]; Concentration in GMO 15%) | Lattice size [3, 7] | Lattice size [3, 9] | Compound | Threshold (minimum amount of ingredient required to increase the water channel size) [3] | Concentration at which V2(Pn3m) lattice size increased [3] | Concentration of transformation/transition in liquid crystalline structure [3] | also measured |
| --- | --- | --- | --- | --- | --- | --- | --- | --- | --- | --- | --- | --- | --- |
| – | – | – | – | – | – | – | – | – | CNCC(O)c1ccc(O)c(O)c1 (stereo not drawn) [Adrenaline] | – | – | – | logP [1]: −0.5 to −1.4; passage through the porcine oral mucosa in a Ussing chamber [2]: expected to pass through the porcine oral mucosa |
| V2(Pn3m) | 93.1 Å | V2(Pn3m) | 99.2 Å | V2(Pn3m) | 105 Å | V2(Pn3m) | 101 Å | – | CC(C)c1c(C(=O)Nc2ccccc2)c(-c2ccccc2)c(-c2ccc(F)cc2)n1CC[C@@H](O)C[C@@H](O)CC(=O)O [Atorvastatin] | 8-10% | 10-35% | – | Phase structure ([3]; Concentration in GMO 20%): V2(Pn3m); Lattice size [3, 8]: 103 Å; Phase structure ([3]; Concentration in GMO 25%): V2(Pn3m); Lattice size ([3]; Concentration in GMO 25%, first value of the cell (first phase listed)): 102 Å; Phase structure ([3]; Concentration in GMO 35%): V2(Pn3m); Lattice size ([3]; Concentration in GMO 35%, first value of the cell (first phase listed)): 105 Å |
| V2(Pn3m) | 84.2 Å | V2(Pn3m) | 109 Å | V2(Pn3m) | 109 Å | V2(Pn3m) + V2(Im3m) | 122 Å | 131 Å | CC(C)c1nc(N(C)S(C)(=O)=O)nc(-c2ccc(F)cc2)c1/C=C/[C@@H](O)C[C@@H](O)CC(=O)O [Rosuvastatin] | A threshold of 3-5% or about 5%. Transformation in structure | Rosuvastatin - V2(Pn3m) lattice size increased at 5-15%. | – | Lattice size [3, 10]: 148 Å; logP [1]: 1.92 |
| V2(Pn3m) | 95.4 Å | V2(Pn3m) | 116 Å | V2(Pn3m) | 133 Å | – | – | – | CCCCCCCCCCCCOS(=O)(=O)[O-].[Na+] [SLS, sodium lauryl sulphate] | 3-5% or about 5%. SLS was also tested in SBT137 and shown to increase | – | with large water channels. Transition at about 50%. | – |
| V2(Pn3m) | 95.4 Å | V2(Pn3m) | 107 Å | V2(Pn3m) + others | 120 Å | – | – | – | O=C1NS(=O)(=O)c2ccccc21.[Na] [Saccharin sodium] | 3-5% | 5-10% | – | – |
| V2(Pn3m) | 93.1 Å | V2(Pn3m) | 103 Å | V2(Pn3m) + other | 113 Å | – | – | – | O=S(=O)([O-])NC1CCCCC1.[Na+] [Sodium cyclamate] | 3-5% | 5-10% | – | – |
| – | – | – | – | – | – | – | – | – | OC[C@@H](O)[C@@H](O)[C@H](O)[C@@H](O)CO [Sorbitol] | – | – | – | V2(Pn3m) lattice size ([3]; ingredient 1 to 50% in GMO): 83 to 92 Å; V2(Ia3d) lattice size ([3]; ingredient at 1% in GMO, blended with V2(Pn3m)): about 138 nm; impact on the GMO cubic structure formed ([3]; tablet excipient mixed with GMO): minimal impact |
| V2(Pn3m) | 91.9 Å | V2(Pn3m) | 97.9 Å | V2(Pn3m) | 106 Å | – | – | 139 Å | CCCCCCCC/C=C\CCCCCCCC(=O)OCCOCC(OCCO)C1OCC(OCCO)C1OCCO (stereo not drawn) [Tween 80] | size from an ODT. A threshold of 8-10% or about 10%. | Tween 80 - V2(Pn3m) lattice size increased at 10-20%. | Transformation in structure by about 20%. | Phase structure ([3]; Concentration in GMO 20%): V2(Pn3m) + V2(Im3m); Lattice size [3, 8]: 138 Å; Lattice size ([3]; Concentration in GMO 20%, second value of the cell (second phase)): 172 Å |
| – | – | – | – | – | – | – | – | – | Magnesium stearate | – | – | – | V2(Pn3m) lattice size ([3]; ingredient 1-20% in GMO): 93 to 95 Å; lamella phase lattice size ([3]; ingredient at 5-30% in GMO): 50; H2 lattice size ([3]; ingredient at 30% in GMO): 62 nm |

| Compound | Phase structure ([3]; Concentration in GMO 1%) | Lattice size [3, 4] | Phase structure ([3]; Concentration in GMO 5%) | Lattice size [3, 5] | Phase structure ([3]; Concentration in GMO 10%) | Lattice size [3, 6] | Phase structure ([3]; Concentration in GMO 15%) | Lattice size [3, 7] | Lattice size [3, 9] | Threshold (minimum amount of ingredient required to increase the water channel size) [3] | Concentration at which V2(Pn3m) lattice size increased [3] | Concentration of transformation/transition in liquid crystalline structure [3] | also measured |
| --- | --- | --- | --- | --- | --- | --- | --- | --- | --- | --- | --- | --- | --- |
| Ibuprofen lysine | V2(Pn3m) | 88.9 Å | V2(Pn3m) | 105 Å | V2(Pn3m) + V2(Ia3d) | 131 Å | Lα + V2(Ia3d) | 80.7 Å | 189 Å | 3-5% | 5-10% | Transformation in structure by about 10%. | Lattice size [3, 10]: 198 Å |
